Assay results taken from patent publication US12084430B2, “Tricyclic urea compounds as JAK2 V617F inhibitors” (Incyte Corporation, priority 2022, dated 2024).
Like-named read-outs stand apart in the source and are kept apart here.

How the values were obtained:
[1] = target: T1, pseudo-kinase domain (JH2) of human V617F mutant JAK2 (Homo sapiens, UniProt O60674, F794H/V617F/W659A/W777A); assay: JAK2 LanthaScreen JH2-V617F binding assay; details: read-out: JH2 V617F Bind IC50
T1 construct: pseudo-kinase domain (JH2, amino-acids 536-812 with 3 surface mutations W659A, W777A, F794H); His (C); purchased BPS Bioscience 79498; host or cells: baculovirus expression system
Protocol: Example B. JAK2 LanthaScreen JH2-V617F Binding Assay
JAK2 JH2-V617F binding assay utilizes pseudo-kinase domain (JH2, amino-acids 536-812 with 3 surface mutations W659A, W777A, F794H) of human V617F mutant JAK2 expressed as C-terminal His-Avi-tagged, biotinylated protein in a baculovirus expression system (BPS Bioscience, Catalog #79498). The assay was conducted in black 384-well polystyrene plates in a final reaction volume of 20 μL. JAK2 JH2-V617F (0.26 nM) was incubated with compounds (100 nL serially diluted in DMSO) in the presence of 50 nM Fluorescent JAK2-JH2 Tracer (MedChem Express Catalog #HY-102055) and 0.25 nM Streptavidin-Tb cryptate (Cisbio Part #610SATLB) in assay buffer (50 mM Tris, pH=7.5, 10 mM MgCl2, 0.01% Brij-35, 0.1% BSA, 1 mM EGTA, 5% Glycerol and 5 mM DTT). Non-specific binding was accessed in the presence of 2 mM ATP. After incubation for 1 hour at 25° C., LanthaScreen signals were read on a PHERAstar FS plate reader (BMG LABTECH). Data was analyzed with IDBS XLfit and GraphPad Prism 5.0 software using a four parameter dose response curve to determine IC50 for each compound.

FLT3 = target: T2, FLT3 (Homo sapiens, UniProt P36888); assay: FLT3 enzymatic assay; format: biochemical; details: 1 mM ATP
T2 sequence (P36888 27-993): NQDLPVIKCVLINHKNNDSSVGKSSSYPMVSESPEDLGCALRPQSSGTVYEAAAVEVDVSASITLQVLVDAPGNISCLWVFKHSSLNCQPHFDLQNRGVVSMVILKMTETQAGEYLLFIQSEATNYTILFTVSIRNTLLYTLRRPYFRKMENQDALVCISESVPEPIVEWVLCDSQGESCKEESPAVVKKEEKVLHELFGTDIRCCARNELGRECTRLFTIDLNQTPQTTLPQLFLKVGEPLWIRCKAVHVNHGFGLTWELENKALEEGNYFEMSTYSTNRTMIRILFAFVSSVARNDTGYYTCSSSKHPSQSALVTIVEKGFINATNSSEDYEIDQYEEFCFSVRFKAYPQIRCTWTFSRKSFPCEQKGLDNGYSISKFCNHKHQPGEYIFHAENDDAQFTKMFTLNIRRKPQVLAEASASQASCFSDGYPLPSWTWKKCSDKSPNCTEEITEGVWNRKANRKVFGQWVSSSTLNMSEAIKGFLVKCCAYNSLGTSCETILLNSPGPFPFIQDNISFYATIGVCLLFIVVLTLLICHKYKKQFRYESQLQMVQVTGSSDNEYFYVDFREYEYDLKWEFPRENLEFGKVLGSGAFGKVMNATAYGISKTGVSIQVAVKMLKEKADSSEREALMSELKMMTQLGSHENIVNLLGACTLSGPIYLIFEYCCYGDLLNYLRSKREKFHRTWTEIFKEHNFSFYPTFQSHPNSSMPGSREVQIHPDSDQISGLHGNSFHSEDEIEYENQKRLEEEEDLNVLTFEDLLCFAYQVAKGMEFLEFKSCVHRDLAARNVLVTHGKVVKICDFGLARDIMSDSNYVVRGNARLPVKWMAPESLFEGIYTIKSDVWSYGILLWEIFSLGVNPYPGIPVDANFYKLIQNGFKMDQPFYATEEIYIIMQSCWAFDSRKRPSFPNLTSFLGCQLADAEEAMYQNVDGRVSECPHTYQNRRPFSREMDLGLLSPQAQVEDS
How it was run: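 Kinase reaction at room temperature in HEPES 50 mM pH 7.0 with 10 mM MgCl2, 1 mM DTT: 0.011 nM FLT3, 1 mM ATP, 500 nM biotinylated TK substrate, 0.5% DMSO. After 60 min, HTRF read as 665/620 nm ratio; IC50 from fit of percent control activity versus log concentration.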

[2] = In vivo pharmacokinetics, rat; parameters: species or system Sprague Dawley rats; details: male, Sprague Dawley, plasma, oral 3.0 mg/kg
Protocol: (§1) Example H. In Vivo Pharmacokinetics
(§2) Test compounds were administered to male Sprague Dawley rats or male and female Cynomolgus monkeys intravenously or via oral gavage. For intravenous (IV) dosing, test compounds were dosed at 1 mg/kg using a formulation of 10% dimethylacetamide (DMAC), 10% propylene glycol (PG) in acidified saline via IV bolus for rat or 10 min IV infusion for monkey. For oral (PO) dosing, test compounds were dosed at 3.0 mg/kg using 5% DMAC in 0.5% methylcellulose in citrate buffer (pH˜2.5). Blood samples were collected at predose and various time points up to 24 hours postdose. All blood samples were collected using EDTA as the anticoagulant and centrifuged to obtain plasma samples. The plasma concentrations of test compounds were determined by LC-MS/MS methods. The measured plasma concentrations were used to calculate PK parameters by standard noncompartmental methods using Phoenix® WinNonlin software program (version 8.0, Pharsight Corporation) or similar software. In rats and monkeys, cassette dosing of test compounds were conducted to obtain preliminary PK parameters. In vivo pharmacokinetic experiments with male beagle dogs may be performed under the conditions described above.

[3] = In vivo pharmacokinetics, cynomolgus monkey; parameters: species or system Cynomolgus monkeys; details: both sexes, plasma, oral 3.0 mg/kg, read-out: CYNO PO AUC
Protocol: as §1, §2

T1 sequence (O60674 536-812 V617F/W659A/W777A/F794H): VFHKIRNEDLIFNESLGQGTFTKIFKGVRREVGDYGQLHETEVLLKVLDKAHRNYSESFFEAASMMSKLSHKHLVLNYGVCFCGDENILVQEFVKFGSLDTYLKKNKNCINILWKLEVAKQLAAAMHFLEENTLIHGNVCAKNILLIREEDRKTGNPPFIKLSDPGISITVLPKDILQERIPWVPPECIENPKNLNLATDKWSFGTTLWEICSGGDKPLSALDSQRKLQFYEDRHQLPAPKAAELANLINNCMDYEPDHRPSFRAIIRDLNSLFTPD

Compound: [2H]C([2H])([2H])Oc1ccc(-c2c(-c3cn(C([2H])([2H])[2H])nc3F)[nH]c3ncc4c(c23)n([C@@H]2CC[C@@H](NC(=O)OC)C2)c(=O)n4C([2H])([2H])[2H])cc1 [Example 9, Methyl ((1R,3R)-3-(7-(3-fluoro-1-(methyl-d3)-1H-pyrazol-4-yl)-8-(4-(methoxy-d3)phenyl)-3-(methyl-d3)-2-oxo-3,6-dihydroimidazo[4,5-d]pyrrolo[2,3-b]pyridin-1(2H)-yl)cyclopentyl)carbamate]
- IC50 ([1]; Table A): ≤ 0.01 µM
- IC50 ([1]; Table C): ≤ 0.01 µM
- IC50 (FLT3): 0.25 to 1.25 µM
- AUC [2]: > 1500 nM·h
- AUC [3]: > 1500 nM·h
